According to ChEMBL document CHEMBL3885881, “DrugMatrix”:

Species: Rattus norvegicus
Experiment: DrugMatrix - Regimen: Daily Repeat
Format: toxicity, organism-based, Sprague-Dawley
Set-up: regimen Daily Repeat, gender Male, age 6-8 weeks
Conditions: in vivo, po, route oral GAVAGE, vehicle 100 % WATER; for ABSOLUTE BASOPHIL / ABSOLUTE EOSINOPHIL / ABSOLUTE LYMPHOCYTE / ABSOLUTE MONOCYTE / ABSOLUTE SEGMENTED NEUTROPHIL / BASOPHIL / EOSINOPHIL / ERYTHROCYTE COUNT / HEMATOCRIT / HEMOGLOBIN / LEUKOCYTE COUNT / LYMPHOCYTE / MEAN CORPUSCULAR HEMOGLOBIN / MEAN CORPUSCULAR HEMOGLOBIN CONCENTRATION / MEAN CORPUSCULAR VOLUME / MONOCYTE / NEUTROPHIL / NUCLEATED RED BLOOD CELLS / PLATELET COUNT: tissue Blood; for ALANINE AMINOTRANSFERASE / ALBUMIN / ALKALINE PHOSPHATASE / ASPARTATE AMINOTRANSFERASE / BLOOD UREA NITROGEN / CARBON DIOXIDE / CHLORIDE / CHOLESTEROL / CREATINE PHOSPHOKINASE / CREATININE / GLUCOSE / LACTATE DEHYDROGENASE / LIPASE / PHOSPHORUS / POTASSIUM / SODIUM / TOTAL BILIRUBIN / TOTAL PROTEIN / URIC ACID: tissue Plasma
[1] = 120 mg/kg, 120 h, dose level Low, time 5 day
[2] = 1695 mg/kg, 72 h, dose level High, time 3 day
[3] = 1695 mg/kg, 120 h, dose level High, time 5 day

SMILES: Nc1ccc(S(=O)(=O)Nc2ccnn2-c2ccccc2)cc1 [SULFAPHENAZOLE]
- ABSOLUTE BASOPHIL [1]: 0 CELLS/uL
- ABSOLUTE EOSINOPHIL [1]: 0 CELLS/uL
- ABSOLUTE LYMPHOCYTE [1]: 12168 CELLS/uL
- ABSOLUTE MONOCYTE [1]: 171.33 CELLS/uL
- ABSOLUTE SEGMENTED NEUTROPHIL [1]: 1260.67 CELLS/uL
- BASOPHIL [1]: 0%
- EOSINOPHIL [1]: 0%
- ERYTHROCYTE COUNT [1]: 5.32 x10E6/uL
- HEMATOCRIT [1]: 32.93%
- HEMOGLOBIN [1]: 13.2 G/DL
- LEUKOCYTE COUNT [1]: 13.6 x10E3/uL
- LYMPHOCYTE [1]: 88.67%
- MEAN CORPUSCULAR HEMOGLOBIN [1]: 24.8 pg
- MEAN CORPUSCULAR HEMOGLOBIN CONCENTRATION [1]: 40.07 G/DL
- MEAN CORPUSCULAR VOLUME [1]: 61.87 fL
- MONOCYTE [1]: 1.33%
- NEUTROPHIL [1]: 10%
- NUCLEATED RED BLOOD CELLS [1]: 0 /100WBC
- PLATELET COUNT [1]: 1135.33 x10E3/uL
- ALANINE AMINOTRANSFERASE [1]: 44 u/L
- ALBUMIN [1]: 4.37 G/DL
- ALKALINE PHOSPHATASE [1]: 314.33 u/L
- ASPARTATE AMINOTRANSFERASE [1]: 85.33 u/L
- BLOOD UREA NITROGEN [1]: 17.67 mg/dL
- CARBON DIOXIDE [1]: 25 mmol/L
- CHLORIDE [1]: 101.67 MEQ/L
- CHOLESTEROL [1]: 55.33 mg/dL
- CREATINE PHOSPHOKINASE [1]: 560.67 u/L
- CREATININE [1]: 0.19 mg/dL
- GLUCOSE [1]: 147.33 mg/dL
- LACTATE DEHYDROGENASE [1]: 243.67 u/L
- LIPASE [1]: 10.67 u/L
- PHOSPHORUS [1]: 11.43 mg/dL
- POTASSIUM [1]: 6.3 MEQ/L
- SODIUM [1]: 141.23 MEQ/L
- TOTAL BILIRUBIN [1]: 0.17 mg/dL
- TOTAL PROTEIN [1]: 5.93 G/DL
- URIC ACID [1]: 1.83 mg/dL
- ABSOLUTE BASOPHIL [2]: 0 CELLS/uL
- ABSOLUTE EOSINOPHIL [2]: 148.67 CELLS/uL
- ABSOLUTE LYMPHOCYTE [2]: 12946.33 CELLS/uL
- ABSOLUTE MONOCYTE [2]: 179 CELLS/uL
- ABSOLUTE SEGMENTED NEUTROPHIL [2]: 1226 CELLS/uL
- BASOPHIL [2]: 0%
- EOSINOPHIL [2]: 1%
- ERYTHROCYTE COUNT [2]: 6.24 x10E6/uL
- HEMATOCRIT [2]: 37.43%
- HEMOGLOBIN [2]: 14.4 G/DL
- LEUKOCYTE COUNT [2]: 14.5 x10E3/uL
- LYMPHOCYTE [2]: 89.33%
- MEAN CORPUSCULAR HEMOGLOBIN [2]: 23.1 pg
- MEAN CORPUSCULAR HEMOGLOBIN CONCENTRATION [2]: 38.5 G/DL
- MEAN CORPUSCULAR VOLUME [2]: 60.03 fL
- MONOCYTE [2]: 1.33%
- NEUTROPHIL [2]: 8.33%
- NUCLEATED RED BLOOD CELLS [2]: 0.33 /100WBC
- PLATELET COUNT [2]: 1221 x10E3/uL
- ALANINE AMINOTRANSFERASE [2]: 93.67 u/L
- ALBUMIN [2]: 4.27 G/DL
- ALKALINE PHOSPHATASE [2]: 470.33 u/L
- ASPARTATE AMINOTRANSFERASE [2]: 97.33 u/L
- BLOOD UREA NITROGEN [2]: 20 mg/dL
- CARBON DIOXIDE [2]: 28.67 mmol/L
- CHLORIDE [2]: 98 MEQ/L
- CHOLESTEROL [2]: 66 mg/dL
- CREATINE PHOSPHOKINASE [2]: 349 u/L
- CREATININE [2]: 0.24 mg/dL
- GLUCOSE [2]: 138 mg/dL
- LACTATE DEHYDROGENASE [2]: 231 u/L
- LIPASE [2]: 12 u/L
- PHOSPHORUS [2]: 11.17 mg/dL
- POTASSIUM [2]: 6.38 MEQ/L
- SODIUM [2]: 138.87 MEQ/L
- TOTAL BILIRUBIN [2]: 0.17 mg/dL
- TOTAL PROTEIN [2]: 5.9 G/DL
- URIC ACID [2]: 1.43 mg/dL
- ABSOLUTE BASOPHIL [3]: 0 CELLS/uL
- ABSOLUTE EOSINOPHIL [3]: 0 CELLS/uL
- ABSOLUTE LYMPHOCYTE [3]: 12966.33 CELLS/uL
- ABSOLUTE MONOCYTE [3]: 311 CELLS/uL
- ABSOLUTE SEGMENTED NEUTROPHIL [3]: 1656 CELLS/uL
- BASOPHIL [3]: 0%
- EOSINOPHIL [3]: 0%
- ERYTHROCYTE COUNT [3]: 5.99 x10E6/uL
- HEMATOCRIT [3]: 35.5%
- HEMOGLOBIN [3]: 13.53 G/DL
- LEUKOCYTE COUNT [3]: 14.93 x10E3/uL
- LYMPHOCYTE [3]: 86.67%
- MEAN CORPUSCULAR HEMOGLOBIN [3]: 22.57 pg
- MEAN CORPUSCULAR HEMOGLOBIN CONCENTRATION [3]: 38.1 G/DL
- MEAN CORPUSCULAR VOLUME [3]: 59.27 fL
- MONOCYTE [3]: 2%
- NEUTROPHIL [3]: 11.33%
- NUCLEATED RED BLOOD CELLS [3]: 0 /100WBC
- PLATELET COUNT [3]: 1318 x10E3/uL
- ALANINE AMINOTRANSFERASE [3]: 117.33 u/L
- ALBUMIN [3]: 4.47 G/DL
- ALKALINE PHOSPHATASE [3]: 435.33 u/L
- ASPARTATE AMINOTRANSFERASE [3]: 99.67 u/L
- BLOOD UREA NITROGEN [3]: 16.33 mg/dL
- CARBON DIOXIDE [3]: 25 mmol/L
- CHLORIDE [3]: 99 MEQ/L
- CHOLESTEROL [3]: 48 mg/dL
- CREATINE PHOSPHOKINASE [3]: 444.33 u/L
- CREATININE [3]: 0.22 mg/dL
- GLUCOSE [3]: 150.33 mg/dL
- LACTATE DEHYDROGENASE [3]: 121.33 u/L
- LIPASE [3]: 12 u/L
- PHOSPHORUS [3]: 11.27 mg/dL
- POTASSIUM [3]: 5.55 MEQ/L
- SODIUM [3]: 141.73 MEQ/L
- TOTAL BILIRUBIN [3]: 0.23 mg/dL
- TOTAL PROTEIN [3]: 5.87 G/DL
- URIC ACID [3]: 1.37 mg/dL
